In patent US7335635B2, “14-3-3 binding molecules as sensitizers for anticancer therapies” (Emory University, priority 2001, dated 2008):
Blank lines part the entries; values can stand above or below the molecule they belong to.

Legend:
[1] = system: 14-3-3; conditions: phosphorylation-independent interaction; cited from earlier work
[2] = system: 14-3-3 proteins; conditions: cited from earlier work
[3] = system: COS-7 cells; assay: Cisplatin-induced cell death with R18 expression, viability assay; type: cell-based; conditions: myc-tagged R18, cisplatin added 12 hours after transfection, read about 36 hours later; FIG. 11a
Method: (§1) Inhibition of 14-3-3/ligand interactions may facilitate apoptotic cell death induced by cytotoxic agents. To test this possibility, the effects of expression of R18 and difopein on cisplatin-induced cell death was examined (FIG. 11). In FIG. 11a, Cos-7 cells were transfected with a lacZ marker gene along with myc-tagged R18 DNA (amount used shown as the fraction of total DNA). 12 hours after transfection, the indicated concentrations of cisplatin were added. Approximately 36 hours later the viability of the cells was determined as in FIG. 3 above. In FIG. 11b, HeLa cervical cancer cells were transfected with EYFP or EYFP-difopein as indicated. 24 hours later, 50 μM cisplatin or vehicle was added. After 24 hours of cisplatin treatment, the cells were assayed as in 2 above.

[4] = target: T1, 14-3-3ζ/ASK1 (Bos taurus, UniProt P63103); assay: Peptide inhibition of [35S]-ASK1 binding to immobilized His-14-3-3ζ; conditions: FIG. 1
T1 sequence (P63103 1-245): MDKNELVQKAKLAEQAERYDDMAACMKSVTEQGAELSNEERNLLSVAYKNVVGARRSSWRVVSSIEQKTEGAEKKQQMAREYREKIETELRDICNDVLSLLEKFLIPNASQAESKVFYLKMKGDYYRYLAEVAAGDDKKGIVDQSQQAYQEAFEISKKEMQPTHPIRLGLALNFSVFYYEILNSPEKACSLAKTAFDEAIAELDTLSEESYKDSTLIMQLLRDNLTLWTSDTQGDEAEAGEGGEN
Method: To determine the effectiveness of various 14-3-3 antagonist, including R18, S-Raf259, and pS-Raf-259, the peptide antagonists were preincubated with immobilized His-14-3-3ζ before adding [^35S]-labeled ASK1. After washing, 14-3-3-bound ASK1 was quantified by PhosphorImager. The percentage of ASK1 bound to 14-3-3 relative to peptide-free samples is plotted against increasing concentration of the test peptides (FIG. 1).

[5] = system: COS-7 cells; assay: Annexin V phenotype of R18 induced cell death; type: cell-based; conditions: data not shown
[6] = target: T2, 14-3-3ζ dimer (Bos taurus, UniProt P63103); assay: R18-Sepharose bead competition with Bad derived phosphopeptides for 14-3-3 binding; conditions: 100 nM 14-3-3ζ dimer; FIG. 2
T2 sequence (P63103 1-245): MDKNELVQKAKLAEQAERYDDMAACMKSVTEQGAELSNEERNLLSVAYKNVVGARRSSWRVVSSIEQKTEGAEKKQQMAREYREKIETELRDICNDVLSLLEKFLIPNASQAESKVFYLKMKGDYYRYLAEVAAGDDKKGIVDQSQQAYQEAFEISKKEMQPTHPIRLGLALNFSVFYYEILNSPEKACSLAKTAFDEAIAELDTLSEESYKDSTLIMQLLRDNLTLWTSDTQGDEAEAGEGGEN
Method: R18 was covalently coupled to Sepharose beads. The beads were then incubated with 100 nM 14-3-3ζ dimer along with the indicated concentrations of synthetic phosphopeptides derived from Bad. pS136 contains a 14-3-3 binding site, while pS112 is a similar peptide incapable of binding 14-3-3. Unbound 14-3-3 was washed away from the beads and the remaining proteins were visualized by SDS-PAGE and sliver staining. […] See also, Masters et al. (2001) Molecular Pharmacology 60: 1325-1331, herein incorporated by reference.

[7] = system: COS-7 cells; assay: DNA content (sub G0) by propidium iodide flow cytometry; type: cell-based; conditions: for cell death (fraction of cells with sub G0 DNA content): 24 hours after transfection, FIG. 5
Method: The two acidic residues of R18 (Asp and Glu) which are involved in coordinating the basic cluster of 14-3-3 were changed to lysine. This peptide is not expected to bind 14-3-3, but it could retain interaction with other cellular partners if they do exist. Cos-7 cells were cotransfected with a farnesylated (EGFP[)] marker along with EYFP, EYFP-R18, or EYFP-R18 (D12K,E14K). After 24 hours, cells were fixed in ethanol and DNA was stained with propidium iodide. EGFP and PI signal intensities were measured on a FACScan flow cytometer (Becton Dickinson), and transfected cells were placed in various phases of the cell cycle based on their DNA content.
In yet another assay, (FIG. 8c) Cos-7 cells were transfected with EYFP or EYFP-difopein as indicated, and cell death was determined as in FIG. 5. Internucleosomal DNA cleavage, which is a commonly used marker of apoptosis, produces small fragments that can diffuse out of cells during ethanol fixation resulting in decreased signals being seen on staining for DNA (Sub-G0 DNA content). Therefore, the appearance of cell containing sub G0 levels of DNA indicates apoptotic cell death.

[8] = system: COS-7 cells; assay: Attachment based viability assay (lacZ marker, β-gal activity); type: cell-based; conditions: expression from transfected vector, FIG. 4, FIG. 8a
Method: R18 is placed under the control of the CMV promoter in a mammalian expression vector pCR3.1 (pSCM110). Cells expressing the control pcDNA3 along with a lacZ marker gave high β-gal activity that was set as 100% survival. […] The R18 effect was dose-dependent because increased R18 expression was correlated with decreased cell viability.
In FIG. 8a, Cos-7 cells were co-transfected with myc-tagged difopein or a control vector along with a lacZ reported gene. After approximately 48 hours floating cells were gently washed away and attached cells were lysed and assayed for β-galactosidase.

[9] = system: caspase 3; assay: Caspase 3 activity in cell lysates (pNA release from Ac-DEVD-pNA); type: cell-based; conditions: FIG. 10a
Method: Cos-7 cells were lysed 12 hours after transfection with various amounts of DNA coding for EYFP-difopein. Equal amounts of lysates were assayed for the ability to liberate p-nitroaniline (pNA) from the caspase 3 substrate Ac-DEVD-pNA. […] In another study, Cos-7 cells were assayed as in FIG. 5, except that they were treated with 50 μM of the pan-caspase inhibitor zVAD-fink or vehicle immediately prior to transfection (FIG. 10b).

[10] = target: T3, 14-3-3ζ/Raf-1 (Bos taurus, UniProt P63103); assay: Co-immunoprecipitation of FLAG-14-3-3ζ and endogenous Raf-1 in transfected HEK293 cells; type: cell-based; conditions: FIG. 3
T3 sequence (P63103 1-245): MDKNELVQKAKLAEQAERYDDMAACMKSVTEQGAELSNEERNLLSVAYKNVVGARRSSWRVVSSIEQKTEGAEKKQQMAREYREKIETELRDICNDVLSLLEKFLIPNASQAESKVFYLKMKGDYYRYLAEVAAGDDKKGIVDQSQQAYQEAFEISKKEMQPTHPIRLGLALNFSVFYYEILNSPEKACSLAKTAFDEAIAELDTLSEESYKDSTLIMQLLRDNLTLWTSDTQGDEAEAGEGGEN
Excerpt: Difopein is a 62 amino acid polypeptide having 14-3-3 antagonist activity. The amino acid sequence of difopein is shown in SEQ ID NO:2 and comprises two R18 monomers (amino acids 6-25 and 37-56 of SEQ ID NO:2) separated by non-repeat linker sequences (amino acids 26-36 of SEQ ID NO:2). […] Specifically, HEK293 cells were transfected with DNA coding for FLAG-tagged 14-3-3ζ and either EYFP or EYFP-difopein as indicated. 14-3-3 was immunoprecipitated using anti-FLAG (M2; Sigma Chemical Co.). In the presence of EYFP, 14-3-3ζ was able to co-precipitate endogenous Raf-1. […] See also, Masters et al. (2001) Journal of Biological Chemistry 276: 45193-45200, herein incorporated by reference.

[11] = system: HeLa cervical cancer cells; assay: Cisplatin-induced cell death with EYFP-difopein expression; type: cell-based; conditions: 50 μM cisplatin for 24 hours, FIG. 11b
Method: as §1

[12] = system: COS-7 cells; assay: Viability by microscopic examination of morphology of X-gal stained transfected cells; type: cell-based; conditions: about 24 hours post transfection; FIG. 8b
Method: In another assay, Cos-7 cells were cotransfected with a lacZ marker in addition to any EYFP-difopein fusion, EYFP alone, or empty vector. Approximately 24 hours post transfection, cells were fixed and transfected cells were identified by staining with X-gal. Viability of the transfected cells was determined by microscopic examination of cell morphology: live cells were flat, while dead cells were rounded up.

Molecule: Pseudomonas aeruginosa exoenzyme S: exoenzyme S from Pseudomonas aeruginosa, a phosphorylation-independent 14-3-3 ligand
affinity for the amphipathic groove of 14-3-3 [1]: high affinity

Molecule: R18 (D12K, E14K): R18 with the two acidic residues (Asp and Glu) that coordinate the basic cluster of 14-3-3 changed to lysine (PHCVPRDLSWLKLKANMCLP; left off: large carriers)
cell death (fraction of cells with sub G0 DNA content) [7]: unable to induce cell death

Molecule: Ac-DEVD-CHO [reference compound]
block of EYFP-difopein induced pNA release ([9]; Cos-7 lysates): completely blocked

B1: difopein: 62 amino acid polypeptide comprising two R18 monomers separated by a non-repeat linker sequence (protein)
chain: SADGAPHCVPRDLSWLDLEANMCLPGAAGLDSADGAPHCVPRDLSWLDLEANMCLPGAAGLE
modifications: difopein polypeptide sequence
binding to 14-3-3 in vivo [10]: can bind 14-3-3 in vivo
enhancement of cisplatin-induced cell death [11]: enhance the ability of an antineoplastic drug to kill cells
cell death compared with monomeric R18 ([7]; EYFP-tagged constructs, FIG. 7): dramatically enhanced the cell death
effect on the cell cycle (DNA content distribution, sub G0 cells excluded) ([7]; FIG. 8c, not shown): does not disrupt the cell cycle
sensitivity of induced cell death to constitutively active Akt ([7]; co-expression of constitutively active Akt, FIG. 9): relatively insensitive to Akt expression
cell viability (β-gal activity) [8]: decreased β-gal activity

Further lines, with some results ahead:

inhibitory effect on 14-3-3ζ/ASK1 compared with pS-Raf-259 [4]: stronger inhibitory affect
inhibition of the interaction of 14-3-3ζ with ASK1 ([4]; peptide preincubated with immobilized His-14-3-3ζ): potent inhibitory affect
Molecule: PHCVPRDLSWLDLEANMCLP [R18]
specificity for 14-3-3 proteins [2]: high specificity
Kd ([2]; different isoforms of 14-3-3, similar affinity): 80 nM
enhancement of cisplatin-induced cell death [3]: enhance the ability of an antineoplastic drug to kill cells
annexin V phenotype [5]: annexin V-positive phenotype
competition with Bad derived peptide for 14-3-3 binding [6]: competes with a Bad derived peptide for 14-3-3 binding
cell death (fraction of cells with sub G0 DNA content) [7]: increase in the fraction of cells containing less than normal amounts of DNA
cell viability (β-gal activity) [8]: drastically decreased the population of viable cells

co-precipitation of endogenous Raf-1 with 14-3-3ζ ([10]; anti-FLAG immunoprecipitation): blocked co-precipitation of Raf-1
B2: EYFP-difopein: EYFP-difopein fusion expressed from transfected DNA (protein)
chain: SADGAPHCVPRDLSWLDLEANMCLPGAAGLDSADGAPHCVPRDLSWLDLEANMCLPGAAGLE
modifications: left off: large carriers
notes: EYFP-difopein fusion expressed from transfected DNA
reduction of the live cell population [12]: about one-half
pNA release from caspase 3 substrate Ac-DEVD-pNA ([9]; Cos-7 lysates 12 hours after transfection): dose dependent increase in pNA release
